In ChEMBL document CHEMBL1201862, “PubChem BioAssay data set” (2004):
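These data come from cells grown in 96-well plates and exposed to compound for 48 hours at five concentrations. GI50: concentration for 50% inhibition of growth.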 Activity calls are given as the source filed them. Rule as the data show it: active = GI50 up to about 1.1 µM and inactive = higher.

What was measured:
Test in all cases: NCI tumour cell line growth inhibition, 48 h
CAKI-1 = system: CAKI-1
CCRF-CEM = system: CCRF-CEM
COLO 205 = system: COLO 205
EKVX = system: EKVX
HCT-15 = system: HCT-15
HOP-62 = system: HOP-62
K562 = system: K562
M14 = system: M14
MOLT-4 = system: MOLT-4
NCI-H460 = system: NCI-H460
NCI-H522 = system: NCI-H522
OVCAR-4 = system: OVCAR-4
OVCAR-5 = system: OVCAR-5
SF-539 = system: SF-539
SK-MEL-28 = system: SK-MEL-28
SK-MEL-5 = system: SK-MEL-5
SK-OV-3 = system: SK-OV-3
SN12C = system: SN12C
UACC-62 = system: UACC-62
HOP-92 = system: HOP-92

SMILES	GI50 (CAKI-1)	GI50 (CCRF-CEM)	GI50 (COLO 205)	GI50 (EKVX)	GI50 (HCT-15)	GI50 (HOP-62)	GI50 (K562)	GI50 (M14)	GI50 (MOLT-4)	GI50 (NCI-H460)	GI50 (NCI-H522)	GI50 (OVCAR-4)	GI50 (OVCAR-5)	GI50 (SF-539)	GI50 (SK-MEL-28)	GI50 (SK-MEL-5)	GI50 (SK-OV-3)	GI50 (SN12C)	GI50 (UACC-62)	GI50 (HOP-92)
Cc1c2n(c3ccccc13)CC1C2N(C)OC1(C)C (stereo not given)	> 100 µM (inactive)	> 100 µM (inactive)	> 100 µM (inactive)	> 100 µM (inactive)	> 100 µM	83.8 µM (inactive)	> 100 µM (inactive)	> 100 µM (inactive)	> 100 µM (inactive)	> 100 µM (inactive)	> 100 µM (inactive)	> 100 µM (inactive)	> 100 µM (inactive)	> 100 µM (inactive)	> 100 µM (inactive)	> 100 µM (inactive)	> 100 µM (inactive)	> 100 µM (inactive)	> 100 µM (inactive)	
NNc1ncnc2cccc(Cl)c12	> 100 µM (inactive)	> 100 µM (inactive)	> 100 µM (inactive)	17.8 µM (inactive)	> 100 µM	> 100 µM (inactive)	> 100 µM (inactive)	> 100 µM (inactive)	> 100 µM (inactive)	> 100 µM (inactive)	> 100 µM (inactive)	> 100 µM (inactive)	> 100 µM (inactive)	> 100 µM (inactive)	> 100 µM (inactive)	> 100 µM (inactive)	> 100 µM (inactive)	> 100 µM (inactive)	> 100 µM (inactive)	
COC(=O)C1(Cc2ccccc2)Cc2ccccc2C1O (stereo not given)	> 100 µM (inactive)	> 100 µM (inactive)	> 100 µM (inactive)	65 µM (inactive)	> 100 µM	> 100 µM (inactive)	> 100 µM (inactive)		39.4 µM (inactive)	> 100 µM (inactive)	56.8 µM (inactive)	29.8 µM (inactive)	> 100 µM (inactive)	> 100 µM (inactive)	> 100 µM (inactive)	37.3 µM (inactive)	> 100 µM (inactive)	> 100 µM (inactive)	> 100 µM (inactive)	
COc1cc(C(N)=O)c(OC)c(OC)c1OC		> 100 µM (inactive)	> 100 µM (inactive)	> 100 µM (inactive)	> 100 µM	> 100 µM (inactive)	> 100 µM (inactive)	> 100 µM (inactive)	> 100 µM (inactive)	> 100 µM (inactive)	> 100 µM (inactive)	> 100 µM (inactive)	> 100 µM (inactive)	> 100 µM (inactive)	> 100 µM (inactive)	> 100 µM (inactive)	> 100 µM (inactive)	> 100 µM (inactive)	> 100 µM (inactive)	> 100 µM (inactive)
COc1ccc(CCn2c(=O)c3ccccc3n(C)c2=O)cc1	38.5 µM (inactive)	23.7 µM (inactive)	13.1 µM (inactive)	60.4 µM (inactive)		26.4 µM (inactive)	4.21 µM (inactive)	26.1 µM (inactive)	33.8 µM (inactive)	60.1 µM (inactive)	24.2 µM (inactive)	> 100 µM (inactive)	> 100 µM (inactive)	41.6 µM (inactive)	57.5 µM (inactive)	31 µM (inactive)	14.6 µM (inactive)	80.7 µM (inactive)	24.2 µM (inactive)	
Nc1c(S(=O)(=O)c2ccc(Cl)cc2)c2nc3ccccc3nc2n2ccnc12		39.4 µM (inactive)	> 100 µM (inactive)	93.8 µM (inactive)	> 100 µM		> 100 µM (inactive)	> 100 µM (inactive)	> 100 µM (inactive)	63.4 µM (inactive)	53.7 µM (inactive)	14.5 µM (inactive)	> 100 µM (inactive)	17.4 µM (inactive)	> 100 µM (inactive)	> 100 µM (inactive)	38.4 µM (inactive)	> 100 µM (inactive)		> 100 µM (inactive)
